In patent US10597388B2, “Pyridazinone herbicides” (FMC CORPORATION, priority 2014, dated 2020):

Tests used:
Test in all cases: Test E greenhouse herbicide test, pre- and postemergence
Type in all cases: in vivo
Details in all cases: Preemergence
[1] = system: kochia (Kochia scoparia)
Description: (§1) Seeds of plant species selected from corn (Zea mays), soybean (Glycine max), velvetleaf (Abutilon theophrasti), lambsquarters (Chenopodium album), wild poinsettia (Euphorbia heterophylla), pigweed, palmer (palmer pigweed, Amaranthus palmeri), waterhemp (common waterhemp, Amaranthus rudis), surinam grass (Brachiaria decumbens), crabgrass, large (large crabgrass, Digitaria sanguinalis), crabgrass, Brazilian (Brazilian crabgrass, Digitaria horizontalis), panicum, fall (fall panicum, Panicum dichotomiflorum), foxtail, giant (giant foxtail, Setaria faberii), foxtail, green (green foxtail, Setaria viridis), goosegrass (Eleusine indica), johnsongrass (Sorghum halepense), ragweed (common ragweed, Ambrosia elatior), barnyardgrass (Echinochloa crus-galli), sandbur (southem sandbur, Cenchrus echinatus), arrowleaf sida (Sida rhombifolia), Italian ryegrass (Lolium multiflorum), dayflower (Virginia (VA) dayflower, Commelina virginica), field bindweed (Convolvulus arvensis), momingglory (Ipomoea coccinea), nightshade (eastern black nightshade, Solanum ptycanthum), kochia (Kochia scoparia), nutsedge, yellow (yellow nutsedge, Cyperus esculentus), horseweed (Conyza canadensis), and beggarticks (hairy beggarticks, Bidens pilosa), were planted into a silt loam soil and treated preemergence with test chemicals formulated in a non-phytotoxic solvent mixture which included a surfactant.
(§2) At the same time, plants from these crop and weed species and also waterhemp_RES1, (ALS & Triazine resistant common waterhemp, Amaranthus rudis), and waterhemp_RES2, (ALS & HPPD resistant common waterhemp, Amaranthus rudis) were planted in pots containing Redi-Earth® planting medium (Scotts Company, 14111 Scottslawn Road, Marysville, Ohio 43041) comprising spaghnum peat moss, vermiculite, wetting agent and starter nutrients were treated with postemergence applications of test chemicals formulated in the same manner. Plants ranged in height from 2 to 18 cm for postemergence treatments (1- to 4-leaf stage). Treated plants and controls were maintained in a greenhouse for 14 to 21 d, after which time all species were compared to controls and visually evaluated. Plant response ratings, summarized in Table E, are based on a scale of 0 to 100 where 0 is no effect and 100 is complete control. A dash (-) response means no test result.

[2] = system: crabgrass, large (large crabgrass, Digitaria sanguinalis)
Description: as §1, §2

[3] = system: johnsongrass (Sorghum halepense)
Description: as §1, §2

[4] = system: soybean (Glycine max)
Description: as §1, §2

[5] = system: pigweed, palmer (palmer pigweed, Amaranthus palmeri)
Description: as §1, §2

[6] = system: nightshade (eastern black nightshade, Solanum ptycanthum)
Description: as §1, §2

[7] = system: momingglory (Ipomoea coccinea)
Description: as §1, §2

[8] = system: foxtail, giant (giant foxtail, Setaria faberii)
Description: as §1, §2

[9] = system: velvetleaf (Abutilon theophrasti)
Description: as §1, §2

[10] = system: dayflower (Virginia (VA) dayflower, Commelina virginica)
Description: as §1, §2

[11] = system: Italian ryegrass (Lolium multiflorum)
Description: as §1, §2

[12] = system: arrowleaf sida (Sida rhombifolia)
Description: as §1, §2

[13] = system: horseweed (Conyza canadensis)
Description: as §1, §2

[14] = system: foxtail, green (green foxtail, Setaria viridis)
Description: as §1, §2

[15] = 62 g ai/ha, scale 0 to 100 (0 no effect, 100 complete control)
[16] = 31 g ai/ha, scale 0 to 100, 0 no effect, 100 complete control
[17] = 125 g ai/ha, visual, scale 0 no effect to 100 complete control
[18] = 250 g ai/ha, visual, scale 0 no effect to 100 complete control
[19] = 125 g ai/ha, scale 0 to 100 (0 no effect, 100 complete control)
[20] = 16 g ai/ha, scale 0 to 100, 0 no effect, 100 complete control

Cc1ccc2ccccc2c1-c1c(O)c(I)nn(C)c1=O [Compound 29]
85: Plant response rating, Nightshade [6, 19]
5: Plant response rating, Nightshade [6, 16]
60: Plant response rating, Dayflower, VA [10, 18]
98: Plant response rating, Foxtail, Giant [8, 18] | Plant response rating, Arrowleaf Sida [12, 17] | Plant response rating, Arrowleaf Sida [12, 18]
90: Plant response rating, Pigweed, Palmer [5, 16] | Plant response rating, Nightshade [6, 18] | Plant response rating, Arrowleaf Sida [12, 15] | Plant response rating, Foxtail, Green [14, 17]
65: Plant response rating, Crabgrass, Large [2, 18] | Plant response rating, Johnsongrass [3, 17] | Plant response rating, Morningglory [7, 15] | Plant response rating, Ryegrass, Italian [11, 16] | Plant response rating, Foxtail, Green [14, 16]
25: Plant response rating, Kochia [1, 17] | Plant response rating, Crabgrass, Large [2, 15]
75: Plant response rating, Ryegrass, Italian [11, 15] | Plant response rating, Foxtail, Green [14, 15]
100: Plant response rating, Johnsongrass [3, 18] | Plant response rating, Pigweed, Palmer [5, 19] | Plant response rating, Pigweed, Palmer [5, 18] | Plant response rating, Velvetleaf [9, 19] | Plant response rating, Velvetleaf [9, 18] | Plant response rating, Ryegrass, Italian [11, 18] | Plant response rating, Horseweed [13, 15] | Plant response rating, Horseweed [13, 16] | Plant response rating, Horseweed [13, 17] | Plant response rating, Horseweed [13, 18] | Plant response rating, Foxtail, Green [14, 18]
50: Plant response rating, Soybean [4, 15] | Plant response rating, Soybean [4, 18]
35: Plant response rating, Morningglory [7, 16]
95: Plant response rating, Morningglory [7, 18] | Plant response rating, Foxtail, Giant [8, 17] | Plant response rating, Velvetleaf [9, 15] | Plant response rating, Ryegrass, Italian [11, 19]
80: Plant response rating, Morningglory [7, 19] | Plant response rating, Foxtail, Giant [8, 15]
0: Plant response rating, Kochia [1, 15] | Plant response rating, Kochia [1, 16] | Plant response rating, Crabgrass, Large [2, 16] | Plant response rating, Dayflower, VA [10, 15] | Plant response rating, Dayflower, VA [10, 16]
40: Plant response rating, Crabgrass, Large [2, 17]
70: Plant response rating, Kochia [1, 18] | Plant response rating, Johnsongrass [3, 15] | Plant response rating, Johnsongrass [3, 16] | Plant response rating, Soybean [4, 19] | Plant response rating, Soybean [4, 16] | Plant response rating, Pigweed, Palmer [5, 15] | Plant response rating, Nightshade [6, 15] | Plant response rating, Foxtail, Giant [8, 16] | Plant response rating, Velvetleaf [9, 16] | Plant response rating, Arrowleaf Sida [12, 16]
10: Plant response rating, Dayflower, VA [10, 17]

COC(=O)Oc1c(C)nn(C)c(=O)c1-c1c(C)sc2ccc(C)cc12 [Compound 80]
35: Plant response rating, Crabgrass, Large [2, 15] | Plant response rating, Crabgrass, Large [2, 19] | Plant response rating, Pigweed, Palmer [5, 16] | Plant response rating, Arrowleaf Sida [12, 15]
80: Plant response rating, Johnsongrass [3, 15] | Plant response rating, Johnsongrass [3, 19] | Plant response rating, Foxtail, Giant [8, 15]
15: Plant response rating, Foxtail, Green [14, 16]
85: Plant response rating, Foxtail, Giant [8, 19]
90: Plant response rating, Kochia [1, 16] | Plant response rating, Velvetleaf [9, 19]
25: Plant response rating, Kochia [1, 20] | Plant response rating, Arrowleaf Sida [12, 19]
10: Plant response rating, Dayflower, VA [10, 19]
20: Plant response rating, Pigweed, Palmer [5, 20] | Plant response rating, Velvetleaf [9, 16]
70: Plant response rating, Pigweed, Palmer [5, 15] | Plant response rating, Pigweed, Palmer [5, 19] | Plant response rating, Morningglory [7, 15] | Plant response rating, Velvetleaf [9, 15] | Plant response rating, Ryegrass, Italian [11, 16]
98: Plant response rating, Nightshade [6, 19] | Plant response rating, Ryegrass, Italian [11, 15] | Plant response rating, Ryegrass, Italian [11, 19]
100: Plant response rating, Kochia [1, 15] | Plant response rating, Kochia [1, 19] | Plant response rating, Nightshade [6, 15] | Plant response rating, Horseweed [13, 15] | Plant response rating, Horseweed [13, 19] | Plant response rating, Horseweed [13, 20] | Plant response rating, Horseweed [13, 16]
65: Plant response rating, Morningglory [7, 16] | Plant response rating, Foxtail, Green [14, 19]
75: Plant response rating, Nightshade [6, 20] | Plant response rating, Nightshade [6, 16] | Plant response rating, Morningglory [7, 19]
50: Plant response rating, Foxtail, Giant [8, 16] | Plant response rating, Ryegrass, Italian [11, 20] | Plant response rating, Foxtail, Green [14, 15]
0: Plant response rating, Crabgrass, Large [2, 20] | Plant response rating, Crabgrass, Large [2, 16] | Plant response rating, Johnsongrass [3, 16] | Plant response rating, Soybean [4, 15] | Plant response rating, Soybean [4, 19] | Plant response rating, Soybean [4, 20] | Plant response rating, Soybean [4, 16] | Plant response rating, Morningglory [7, 20] | Plant response rating, Foxtail, Giant [8, 20] | Plant response rating, Velvetleaf [9, 20] | Plant response rating, Dayflower, VA [10, 15] | Plant response rating, Dayflower, VA [10, 20] | Plant response rating, Dayflower, VA [10, 16] | Plant response rating, Arrowleaf Sida [12, 20] | Plant response rating, Arrowleaf Sida [12, 16] | Plant response rating, Foxtail, Green [14, 20]
